Patent publication US8309685B2 (Celgene Avilomics Research, Inc., priority 2007, dated 2012)

Columns and labels:
[1] = biological target: T1, D168A mutant of the HCV NS3/4A 1b protease enzyme (Hepatitis C virus genotype 1b, UniProt P26663, D1194A); assay: HCV Protease FRET Assay (IC50), D168A mutant; format: biochemical; details: read-out: Inhibition, HCV D168A; D168A enzyme, FRET assay
T1 construct: 10× stocks of NS3/4A protease enzyme from Bioenza (Mountain View, Calif.); purchased Bioenza (Mountain View, Calif.)
Description: (§1) HCV Protease FRET Assay for Wild Type and Mutated NS3/4A 1b Enzymes (IC50)
(§2) Protease reactions were started with the addition of 45 μL of the FRET substrate and monitored for 120 minutes at λex487/λem514 through Quad^4 monochromoters in a Synergy^4 plate reader from BioTek (Winooski, Vt.). At the conclusion of each assay, progress curves from each well were examined for linear reaction kinetics and fit statistics (R^2, absolute sum of squares).
(§3) The compound numbers correspond to the compound numbers in Table 3.

[2] = biological target: T2, wild type HCV NS3/4A 1b protease enzyme (Hepatitis C virus genotype 1b, UniProt P26663); assay: biochemical; format: biochemical; details: read-out: Inhibition, WT; WT enzyme, FRET assay
T2 construct: 10× stocks of NS3/4A protease enzyme from Bioenza (Mountain View, Calif.); purchased Bioenza (Mountain View, Calif.)
Description: as §1, §2, §3

[3] = biological target: T1, D168A mutant of the HCV NS3/4A 1b protease enzyme; assay: HCV Protease FRET Assay (IC50_APP), D168A mutant; format: biochemical; details: apparent IC50, D168A mutant; read-out: IC50_APP, HCV D168A
Description: (§4) HCV Protease FRET Assay for WT and Mutated NS3/4A 1b Enzymes (IC50—APP).
(§5) The following protocol was used to generate “apparent” IC50 (IC50—APP) values as depicted in Table 6, below. […] 5 μL of each enzyme were added to Corning (#3575) 384-well, black, microtiter plates (Corning, N.Y.) after spotting a 0.5 μL volume of 50% DMSO and serially diluted compounds prepared in 50% DMSO. Protease reactions were immediately started after enzyme addition with the addition of 45 μL of the FRET substrate and monitored for 60-90 minutes at λex485/λem520 in a Synergy^4 plate reader from BioTek (Winooski, Vt.). At the conclusion of each assay, progress curves from each well were examined for linear reaction kinetics and fit statistics (R^2, 95% confidence intervals, absolute sum of squares).
(§6) The compound numbers correspond to the compound numbers in Table 3. […] ;

[4] = biological target: T3, A156T mutant of the HCV NS3/4A 1b protease enzyme (Hepatitis C virus genotype 1b, UniProt P26663, A1182T); assay: HCV Protease FRET Assay (IC50_APP), A156T mutant; format: biochemical; details: apparent IC50, A156T mutant; read-out: IC50_APP, HCV A156T
T3 construct: 10× stocks of NS3/4A protease enzyme from Bioenza (Mountain View, Calif.); purchased Bioenza (Mountain View, Calif.)
Description: as §4, §5, §6

[5] = biological target: T2, wild type HCV NS3/4A 1b protease enzyme; assay: HCV Protease FRET Assay (IC50_APP), wild type; format: biochemical; details: read-out: IC50_APP, WT; apparent IC50, wild type NS3/4A 1b
Description: as §4, §5, §6

[6] = system: HCV RNA replicon in cell line ET (luc-ubi-neo/ET), human Huh7 hepatoma; assay: Method A: HCV RNA replicon antiviral assay (luciferase, ET cell line); format: cell-based, Hepatitis C virus; details: Hepatitis C virus, Huh-7, assay described in Example 22; for IC50: read-out: Replicon (IC50)
Description: The compounds were assayed to evaluate the antiviral activity and cytotoxicity of compounds in vitro using HCV RNA replicons. This assay used the cell line ET (luc-ubi-neo/ET), which is a human Huh7 hepatoma cell line that contains an HCV RNA replicon with a stable luciferase (Luc) reporter and three cell culture-adaptive mutations. […]
The ET cell line was grown in Dulbecco's modified essential media (DMEM), 10% fetal bovine serum (FBS), 1% penicillin-streptomycin (pen-strep), 1% glutamine, 250 μg/ml G418 in a 5% CO2 incubator at 37° C. All cell culture reagents were obtained from Mediatech (Manassas, Va.). Cells were trypsinized (1% trypsin:EDTA) and plated out at 5×10^3 cells/well in white 96-well assay plates (Costar) dedicated to cell number (cytotoxicity) or antiviral activity assessments. Drugs were added at six 3-fold concentrations each and the assay was run in DMEM, 5% FBS, 1% pen-strep, 1% glutamine. Human interferon alpha-2b (PBL Biolabs, New Brunswick, N.J.) was included in each run as a positive control compound. Cells were processed 72 hr post drug addition when the cells are still subconfluent. Antiviral activity was measured by analyzing replicon-derived luciferase activity using the Steady-Glo Luciferase Assay System (Promega, Madison, Wis.) according to manufacturer's instruction. The number of cells in each well was determined by CytoTox-1 reagent (Promega). Compound profile was derived by calculating applicable EC50 (effective concentration inhibiting virus replication by 50%), EC90 (effective concentration inhibiting virus replication by 90%), IC50 (concentration decreasing cell viability by 50%) and SI50 (selective index: […]) values.

Work on `C=CC(=O)N(C)CC(=O)N1C[C@H](Oc2cc(-c3ccccc3)nc3cc(OC)ccc23)C[C@H]1C(=O)N[C@]1(C(=O)NS(=O)(=O)C2CC2)C[C@H]1C=C` [Compound I-37, (2S,4R)—N-((1R,2S)-1-(cyclopropylsulfonylcarbamoyl)-2-vinylcyclopropyl)-4-(7-methoxy-2-phenylquinolin-4-yloxy)-1-(2-(N-methylacrylamido)acetyl)pyrrolidine-2-carboxamide] yielded an IC50 [1] of 1 to 10 µM and an IC50 [2] of 0.01 to 0.1 µM.

Molecule `C=CC(=O)N[C@@H](C)C(=O)N1C[C@H](Oc2cc(-c3ccccc3)nc3cc(OC)ccc23)C[C@H]1C(=O)N[C@]1(C(=O)NS(=O)(=O)c2ccccc2)C[C@H]1C=C` [Compound I-34, (2S,4R)-1-((S)-2-acrylamidopropanoyl)-4-(7-methoxy-2-phenylquinolin-4-yloxy)-N-((1R,2S)-1-(phenylsulfonylcarbamoyl)-2-vinylcyclopropyl)pyrrolidine-2-carboxamide] has an IC50 [1] of 1 to 10 µM and an IC50 [2] of 0.01 to 0.1 µM.

For `C=CC(=O)NC[C@H](NC(=O)CCCCCNC(=O)CCCC[C@@H]1SC[C@@H]2NC(=O)N[C@@H]21)C(=O)N1C[C@H](Oc2cc(-c3ccccc3)nc3cc(OC)ccc23)C[C@H]1C(=O)N[C@]1(C(=O)NS(=O)(=O)c2ccccc2)C[C@H]1C=C` [Compound I-31, (2S,4R)-1-((S)-3-acrylamido-2-(6-(5-((3aS,4S,6aR)-2-oxohexahydro-1H-thieno[3,4-d]imidazol-4-yl)pentanamido)hexanamido)propanoyl)-4-(7-methoxy-2-phenylquinolin-4-yloxy)-N-((1R,2S)-1-(phenylsulfonylcarbamoyl)-2-vinylcyclopropyl)pyrrolidine-2-carboxamide], the IC50 [1] was 0.01 to 0.1 µM and the IC50 [2] was under 0.01 µM.

Molecule `C=C[C@@H]1C[C@]1(NC(=O)[C@@H]1C[C@@H](Oc2cc(-c3ccccc3)nc3cc(OC)ccc23)CN1C(=O)CNC(=O)[C@@H](Cl)c1ccccc1)C(=O)NS(=O)(=O)c1ccccc1` (stereo in doubt) [Compound I-45, (2S,4R)-1-(2-((S,R)-2-chloro-2-phenylacetamido)acetyl)-4-(7-methoxy-2-phenylquinolin-4-yloxy)-N-((1R,2S)-1-(phenylsulfonylcarbamoyl)-2-vinylcyclopropyl)pyrrolidine-2-carboxamide] has an IC50 [1] of 1 to 10 µM and an IC50 [2] of 0.1 to 1 µM.

Work on `C=CC(=O)N1C[C@H](Oc2cc(-c3ccccc3)nc3cc(OC)ccc23)C[C@H]1C(=O)N[C@]1(C(=O)NS(=O)(=O)C2CC2)C[C@H]1C=C` [Compound I-49, (2S,4R)-1-acryloyl-N-((1R,2S)-1-(cyclopropylsulfonylcarbamoyl)-2-vinylcyclopropyl)-4-(7-methoxy-2-phenylquinolin-4-yloxy)pyrrolidine-2-carboxamide] yielded an IC50 [1] of 0.1 to 1 µM and an IC50 [2] of 0.01 to 0.1 µM.

Molecule `C=C[C@@H]1C[C@]1(NC(=O)[C@@H]1C[C@@H](Oc2cc(-c3ccccc3)nc3cc(OC)ccc23)CN1C(=O)[C@H](CCNC(=O)C(C)Cl)NC(=O)OC(C)(C)C)C(=O)NS(=O)(=O)c1ccccc1` (stereo partly drawn) [Compound I-1, (2S)-2-[[(1,1-dimethylethoxy)carbonyl]amino]-4-(R,S-chloropropionyl)amino-butanoyl-(4R)-4-[(7-methoxy-2-phenyl-4-quinolinyl)oxy]-L-prolyl-1-amino-2-ethenyl-N-(phenylsulfonyl)-(1R,2S)-cyclopropanecarboxamide] has an IC50 [1] of 1 to 10 µM and an IC50 [2] of under 0.01 µM.

Molecule `C=CC(=O)N(C)C[C@H](NC(=O)c1cnccn1)C(=O)N1C[C@H](Oc2cc(-c3ccccc3)nc3cc(OC)ccc23)C[C@H]1C(=O)N[C@]1(C(=O)NS(=O)(=O)C2CC2)C[C@H]1C=C` [Compound I-58, (S)—N-3-(N-methyl)acrylamido-1-((2S,4R)-2-((1R,2S)-1-(cyclopropylsulfonylcarbamoyl)-2-vinylcyclopropylcarbamoyl)-4-(7-methoxy-2-phenylquinolin-4-yloxy)pyrrolidin-1-yl)-1-oxo-2-propylpyrazinecarboxamide] has an IC50 [3] of 1 to 10 µM, an IC50 [4] of 1 to 10 µM and an IC50 [5] of 0.01 to 0.1 µM. For the same molecule, the IC90 [6] was 1 to 10 µM and the IC50 [6] was 0.1 to 1 µM.

With `C=C[C@@H]1C[C@]1(NC(=O)[C@@H]1C[C@@H](Oc2cc(-c3ccccc3)nc3cc(OC)ccc23)CN1C(=O)[C@H](CCC(=O)N1CCC1=O)NC(=O)OC(C)(C)C)C(=O)NS(=O)(=O)C1CC1` [Compound I-70, t-butyl-(2S)-1-((2S,4R)-2-((1R,2S)-1-(cyclopropylsulfonylcarbamoyl)-2-vinylcyclopropylcarbamoyl)-4-(7-methoxy-2-phenylquinolin-4-yloxy)pyrrolidin-1-yl)-5-(2-oxoazetidinyl)-1,5-dioxopentan-2-ylcarbamate] the IC50 [3] was under 0.01 µM, the IC50 [4] was under 0.01 µM and the IC50 [5] was under 0.01 µM. It also gave an IC90 [6] of 0.1 to 1 µM and an IC50 [6] of 0.1 to 1 µM.

Work on `C=CC(=O)N(C)C[C@H](NC(=O)OC(C)(C)C)C(=O)N1C[C@H](Oc2cc(-c3ccccc3)nc3cc(OC)ccc23)C[C@H]1C(=O)N[C@]1(C(=O)NS(=O)(=O)C2CC2)C[C@H]1C=C` [Compound I-52, tert-butyl-(S)-1-((2S,4R)-2-((1R,2S)-1-(cyclopropylsulfonylcarbamoyl)-2-vinylcyclopropylcarbamoyl)-4-(7-methoxy-2-phenylquinolin-4-yloxy)pyrrolidin-1-yl)-3-(N-methylacrylamido)-1-oxopropan-2-ylcarbamate] yielded an IC50 [3] of 1 to 10 µM, an IC50 [4] of 0.1 to 1 µM and an IC50 [5] of under 0.01 µM. For the same molecule, the IC90 [6] was under 0.01 µM and the IC50 [6] was under 0.01 µM.

For `C#Cc1ccc(S(=O)(=O)NC(=O)[C@@]2(NC(=O)[C@@H]3C[C@@H](Oc4cc(-c5ccccc5)nc5cc(OC)ccc45)CN3C(=O)[C@H](CNC(=O)C=C)NC(=O)OC(C)(C)C)C[C@H]2C=C)cc1` [Compound I-61, t-butyl-(S)-3-acrylamido-1-((2S,4R)-2-((1R,2S)-1-(4-ethynylphenylsulfonylcarbamoyl)-2-vinylcyclopropylcarbamoyl)-4-(7-methoxy-2-phenylquinolin-4-yloxy)pyrrolidin-1-yl)-1-oxopropan-2-ylcarbamate], the IC50 [3] was 1 to 10 µM, the IC50 [4] was 1 to 10 µM and the IC50 [5] was 0.01 to 0.1 µM. For the same molecule, the IC90 [6] was 1 to 10 µM and the IC50 [6] was 0.1 to 1 µM.

Molecule `C=C[C@@H]1C[C@]1(NC(=O)[C@@H]1C[C@@H](Oc2cc(-c3ccccc3)nc3cc(OC)ccc23)CN1C(=O)[C@H](Cc1ccc(F)c([N+](=O)[O-])c1)NC(=O)OC(C)(C)C)C(=O)NS(=O)(=O)c1ccccc1` [Compound I-59, tert-butyl-(S)-1-((2S,4R)-4-(7-methoxy-2-phenylquinolin-4-yloxy)-2-((1R,2S)-1-(phenylsulfonylcarbamoyl)-2-vinylcyclopropylcarbamoyl)pyrrolidin-1-yl)-3-(4-fluoro-3-nitrophenyl)-1-oxopropan-2-ylcarbamate] has an IC50 [3] of 1 to 10 µM, an IC50 [4] of 1 to 10 µM and an IC50 [5] of under 0.01 µM. For the same molecule, the IC90 [6] was 1 to 10 µM and the IC50 [6] was 0.1 to 1 µM.
